Laboratory results from US20170112878A1, “PROGRAMMABLE UNIVERSAL CELL RECEPTORS AND METHOD OF USING THE SAME” (Sorrento Therapeutics, Inc., priority 2015, published 2017).

Tested on: PUCR comprising 38C2 scFab expressed on the membrane of the NKL cells
Test: Programming of PUCR on NKL cells with AZD-PEG8-biotin, detected with DTAF-conjugated streptavidin by FACS
Format: cell-based
Conditions: 1 μM or 10 μM, 4° C., 1 hour, PUCR-expressing vs wild-type NKL cells
Text: To generate constructs encoding a PUCR comprising humanized 38C2 scFab, a nucleic acid encoding the humanized 38C2 scFab was designed by fusing a nucleic acid encoding humanized 38C2 […] LC domain, a nucleic acid encoding a poly-GlySer linker, a nucleic acid encoding the humanized 38C2 VH domain, and a nucleic acid encoding the human gamma 1 HC constant domain 1. The resulting nucleic acid fragment was cloned into a retroviral vector to encode a PUCR comprising an N-terminal leader peptide, followed by the 38C2 scFab, followed by a hybrid CD8 and CD28 hinge, a CD28 transmembrane domain, a CD28 intracellular domain, and a CD3ζ intracellular domain. The nucleic acid and amino acid sequences of the PUCR are shown below. NKL cells were transduced with the viral vector encoding the PUCR.
The PUCR comprising 38C2 scFab expressed on the membrane of the NKL cells was conjugated (i.e., programmed) with the specificity agent AZD-PEG8-biotin (see FIG. 11). […] AZD-PEG8-biotin comprises the reactivity moiety azetidinone which reacts with and forms a stable covalent bond with the reactive lysine of the 38C2 scFab within the PUCR. […] Fluorescence was measured using a ACEA Biosciences NovoCyte flow cytometer. Data was analyzed with FlowJo software, and DTAF-conjugated streptavidin binding was quantified by increased mean fluorescence intensity. […]

SMILES: O=C(CCCC[C@@H]1SC[C@@H]2NC(=O)N[C@@H]21)NCCOCCOCCOCCOCCOCCOCCNC(=O)CCOCCOCCC(=O)Nc1ccc(CCC(=O)N2CCC2=O)cc1 [AZD-PEG8-Biotin, 5-[(3aS,4S,6aR)-2-oxo-1,3,3a,4,6,6a-hexahydrothieno[3,4-d]imidazol-4-yl]-N-[2-[2-[2-[2-[2-[2-[2-[3-[2-[3-oxo-3-[4-[3-oxo-3-(2-oxoazetidin-1-yl)propyl]anilino]propoxy]ethoxy]propanoylamino]ethoxy]ethoxy]ethoxy]ethoxy]ethoxy]ethoxy]ethyl]pentanamide]
- conjugation (programming) of PUCR, DTAF-conjugated streptavidin binding: successfully programmed
